Here are results for 27 compounds from ChEMBL document CHEMBL1121588, “Studies on anticoccidial agents. 13. Synthesis and anticoccidial activity of nitropyridine-2- and -3-sulfonamides and derivatives” (1980).

Type in all cases: functional
The test system of assay [1] is Eimeria tenella. The assay is described as follows: Anticoccidial activity against Eimeria tenella using amprolium resistant strain at a concentration of 0.015% drug in feed.
Assay [2] concerns Eimeria tenella. The assay is described as follows: Anticoccidial activity against Eimeria tenella using amprolium resistant strain at a concentration of 0.0035% drug in feed.
The subject of assay [3] is Eimeria tenella. The assay is described as follows: Anticoccidial activity against Eimeria tenella using amprolium resistant strain at a concentration of 0.00175% drug in feed.
Assay [4] deals with Eimeria tenella. The assay is described as follows: Anticoccidial activity against Eimeria tenella using amprolium resistant strain at a concentration of 0.007% drug in feed.

As for `CCCCN(CC)S(=O)(=O)c1cncc([N+](=O)[O-])c1`, the Activity in the assay with Eimeria tenella [1] is reported as 175. Still for that read-out and setting: the same measure for `CN(C)S(=O)(=O)c1cncc([N+](=O)[O-])c1`: 175; for `CCOCCN(CC)S(=O)(=O)c1cncc([N+](=O)[O-])c1`: 178.

Turning to `CNS(=O)(=O)c1cncc([N+](=O)[O-])c1`, in the assay with Eimeria tenella [1], the Activity was 195. Still for that read-out and setting: the same measure for `O=[N+]([O-])c1cncc(S(=O)(=O)NCc2ccccc2)c1`: 168.

In the assay with Eimeria tenella [1], `CC(C)(C)C(=O)NS(=O)(=O)c1cncc([N+](=O)[O-])c1` registered an Activity of 122. Still for that read-out and setting: for `CCCCCCCC(=O)NS(=O)(=O)c1cncc([N+](=O)[O-])c1` the value was 187; for `NS(=O)(=O)c1ccc[n+]([O-])c1`, 160; for `O=[N+]([O-])c1cncc(S(=O)(=O)Nc2ccccc2)c1`, 86. Same read-out and setting: for `NS(=O)(=O)c1ncccc1[N+](=O)[O-]` the value was 55. The same measure, in the same setting: for `NS(=O)(=O)c1ccc([N+](=O)[O-])nc1` the value was 120; for `NS(=O)(=O)c1cccnc1[N+](=O)[O-]`, 144; for `NS(=O)(=O)c1cnccc1[N+](=O)[O-]`, 144. Regarding `CCOCCNS(=O)(=O)c1cncc([N+](=O)[O-])c1`, the Activity in the assay with Eimeria tenella [1] amounted to 192. `NS(=O)(=O)c1cncc([N+](=O)[O-])c1`: the Activity in the assay on Eimeria tenella [1] was determined as 194; with Eimeria tenella [2], 194; with Eimeria tenella [3] it was 158; with Eimeria tenella [4], 195. On to `CCNS(=O)(=O)c1cncc([N+](=O)[O-])c1`, for which the Activity in the assay with Eimeria tenella [1] stood at 190.

In the case of `CCCCCCCCNS(=O)(=O)c1cncc([N+](=O)[O-])c1`, in the assay on Eimeria tenella [1], the Activity amounted to 126.

As to `NC(=O)c1cncc([N+](=O)[O-])c1`, the Activity in the assay on Eimeria tenella [1] is reported as 198; in the assay on Eimeria tenella [2], 158; in the assay on Eimeria tenella [4] it was 186.

Turning to `CC(=O)NS(=O)(=O)c1cncc([N+](=O)[O-])c1`, the Activity in the assay on Eimeria tenella [1] worked out at 186.

Compound `NS(=O)(=O)c1cc[n+]([O-])cc1` displayed an Activity with Eimeria tenella [1] of 120. In turn, `NS(=O)(=O)c1cccc[n+]1[O-]` registered an Activity in the assay on Eimeria tenella [1] of 183. `O=[N+]([O-])c1cncc(S(=O)(=O)NCCO)c1` yielded an Activity in the assay on Eimeria tenella [1] of 120. On the same count and under the same terms, for `NS(=O)(=O)c1ccc([N+](=O)[O-])cn1` the value was 32; for `NS(=O)(=O)c1cccc([N+](=O)[O-])n1`, 120; for `NS(=O)(=O)c1cc([N+](=O)[O-])ccn1`, 107. Compound `CC(C)OCCCNS(=O)(=O)c1cncc([N+](=O)[O-])c1` gave an Activity in the assay with Eimeria tenella [1] of 193. The same measure, in the same setting: the same measure for `CCCc1ncc(C[n+]2ccccc2C)c(N)n1.[Cl-]`: 95.
